# According to patent US6169181A, “Compounds useful to treat retroviral infections” (Pharmacia & Upjohn Company, priority 1998, dated 2001):
# Key:
# HIV-1 protease [1] = target: T1, HIV-1 protease (Human immunodeficiency virus type 1 group M subtype B, UniProt P04585); assay: biochemical; conditions: Table II, enzyme HIV-1
# Summary of the method: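 A substrate biotinylated at the N-terminal arginine and FITC-labelled at the C-terminal lysine was incubated with HIV-1 protease (10 μl of 0.1 μM) and compound for 1 h in the dark at room temperature. Buffer was 0.1 M sodium acetate pH 5.5, 1.0 M NaCl, 0.05% NP-40. Labelled product was separated from substrate using streptavidin beads and filtration, and the fluorescence gave percent inhibition.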
# HIV-1 protease [2] = target: T1, HIV-1 protease; assay: biochemical; conditions: Table II; enzyme HIV-1; read-out: FITC KI
# Summary of the method: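 Biotinylated, FITC-labelled peptide substrate cleaved in 0.1 M sodium acetate pH 5.5, 1.0 M NaCl, 0.05% NP-40, room temperature. Filtered labelled product read by fluorescence; nonlinear least-squares fit.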
Compound,PROTEASE % INHIB. (HIV-1 protease [1]; DOSE 0.123 (unit not given)) [%],PROTEASE % INHIB. (HIV-1 protease [1]; DOSE 0.370 (unit not given)) [%],PROTEASE % INHIB. (HIV-1 protease [1]; DOSE 1.100 (unit not given)) [%],PROTEASE % INHIB. (HIV-1 protease [1]; DOSE 3.300 (unit not given)) [%],PROTEASE % INHIB. (HIV-1 protease [1]; DOSE 10.000 (unit not given)) [%],PROTEASE % INHIB. (HIV-1 protease [1]; DOSE 30.000 (unit not given)) [%],Ki (HIV-1 protease [2]) [nM]
"CCCC1(CCc2ccccc2)CC(O)=C(C(c2cccc(NS(=O)(=O)c3ccc(C(F)(F)F)cn3)c2)C(C)(C)C)C(=O)O1 (stereo not shown) [Example 293, 5-Trifluoromethyl-N-[3-[1-[5,6-dihydro-4-hydroxy-2-oxo-6-(2-phenethyl)-6-n-propyl-2H-pyran-3-yl]-2,2-dimethylpropyl]-phenyl]-2-pyridinesulfonamide]",53.45,77.51,94.18,103.03,97.41,92.01,4.3
"CCCC1(CCc2ccc(F)cc2)CC(O)=C(C(c2cccc(NS(=O)(=O)c3ccc(C#N)cc3)c2)C(C)(C)C)C(=O)O1 (stereo not shown) [Example 328, N-[3-{1-(4-Hydroxy-5,6-dihydro-2-oxo-6-(2-(4-fluorophenyl)ethyl)-6-propyl-2H-pyran-3-yl)-2,2-dimethylpropyl}phenyl]-4-cyanobenzenesulfonamide]",27.81,79.47,95.45,96.77,96.78,92.17,22
"CCCC1(CCc2ccc(F)cc2)CC(O)=C(C(c2cccc(NS(=O)(=O)c3cccc4cccnc34)c2)C(C)(C)C)C(=O)O1 (stereo not shown) [Example 329, N-[3-{1-(4-Hydroxy-5,6-dihydro-2-oxo-6-(2-(4-fluorophenyl)ethyl)-6-propyl-2H-pyran-3-yl)-2,2-dimethylpropyl)phenyl]-8-quinolinesulfonamide]",46.4,88.19,96.63,100.32,97.07,96.35,12
"CCC(C1=C(O)CC(CCc2ccc(F)cc2)(CCc2ccc(F)cc2)OC1=O)c1cccc(NS(=O)(=O)c2ccc(C(N)=O)cn2)c1 (stereo not shown) [Example 333, N-[3-{1-(4-Hydroxy-5,6-dihydro-2-oxo-6,6-bis(2-(4-fluorophenyl)ethyl)-2H-pyran-3-yl)propyl}phenyl]-5-carbamoylpyridine-2-sulfonamide]",66.73,85.07,85.12,93.69,89.38,77.91,7.7
"Cn1cnc(S(=O)(=O)Nc2cccc(C(C3=C(O)CC(CCc4ccccc4)(CCc4ccccc4)OC3=O)C(C)(C)C)c2)c1 (stereo not shown) [Example 343, N-[3-{1-(4-Hydroxy-5,6-dihydro-2-oxo-6,6-bis(2-phenylethyl)-2H-pyran-3-yl)-2,2-dimethylpropyl}phenyl]-1-methyl-1H-imidazole-4-sulfonamide]",57.5,76.83,81.02,86.43,60.56,46,2.9
"CC(C)(C)C(C1=C(O)CC(CCc2ccccc2)(CCc2ccccc2)OC1=O)c1cccc(NS(=O)(=O)c2ccc(C#N)cn2)c1 (stereo not shown) [Example 344, N-[3-{1-(4-Hydroxy-5,6-dihydro-2-oxo-6,6-bis(2-phenylethyl)-2H-pyran-3-yl)-2,2-dimethylpropyl}phenyl]-5-cyanopyridine-2-sulfonamide]",47.37,72.84,81.17,83.08,68.47,46.24,5.9
"Nc1ccc(S(=O)(=O)Nc2cccc(CC3=C(O)CC(CCc4ccccc4)(CCc4ccccc4)OC3=O)c2)nc1 [Example 354, N-[3-{1-(4-Hydroxy-5,6-dihydro-2-oxo-6,6-bis(2-phenylethyl)-2H-pyran-3-yl)methyl}phenyl]-5-aminopyridine-2-sulfonamide]",< 10,10.37,26.79,46.1,54.97,54.5,665
